SMILES strings stand for the structures.

The subject of test [1] is K562 (chronic myelogenous leukaemia). In words: Effect of compounds on tumor cell lines (assay of Latham et al.), K562. In kind it is cell-based. The note with it: K562 cells, 96 hours after treatment, 1 μM to 100 μM; read-out: K 562 potency (IC50). The method in brief: (§1)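 K562 or DU145 cells plated at 2.5×10^4 cells/well, treated 24 h later with compound in DMSO at 1 μM to 100 μM (0.1 μM to 100 μM for one compound). Activity judged by microscopic observation after 96 h; where needed, viable cells counted by trypan blue exclusion.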

Test [2] deals with DU145 (prostate cancer). Put plainly: Effect of compounds on tumor cell lines (assay of Latham et al.), DU145. It counts as cell-based. Particulars: DU145 cells, 96 hours after treatment, 1 μM to 100 μM; read-out: DU 145 potency (IC50). The method in brief:
as §1

For the molecule `O=C(C(=Cc1ccc([N+](=O)[O-])cc1)SCc1ccc(Br)cc1)c1ccc(Br)cc1` [Example 320], the IC50 in test [1] and in test [2] was 1 to 10 µM throughout.
In the case of `O=C(C(=Cc1cccnc1)SCc1ccc(Cl)cc1)c1ccc(Br)cc1` [Example 321], the IC50 in test [1] and in test [2] was 1 to 10 µM in each case.
On to `O=C(C(=Cc1cccnc1)SCc1ccc(Cl)cc1)c1ccc(Cl)cc1` [Example 322], for which the IC50 in test [1] and in test [2] was 1 to 10 µM throughout.
For the molecule `O=C(O)c1ccc(C=C(SCc2ccc(Cl)cc2)C(=O)c2ccc(C(=O)O)cc2)cc1` [Example 323], the IC50 in test [1] and in test [2] was > 100 µM throughout.
For `O=C(C(=Cc1ccc(Cl)cc1)SCc1ccc(Cl)cc1)c1ccc(Cl)cc1` [Example 324], the IC50 in test [1] lay within 1 to 10 µM; in test [2], 10 to 25 µM.
The like results for `O=C(C(=Cc1ccc([N+](=O)[O-])cc1)SCc1ccc(Cl)cc1)c1ccc(Cl)cc1` [Example 326] were, in that order, 1 to 10 µM and 1 to 10 µM.
As for `O=C(C(=Cc1ccc(C(F)(F)F)cc1)SCc1ccc(Cl)cc1)c1ccc(Cl)cc1` [Example 327], the IC50 in test [1] and in test [2] was 1 to 10 µM each time.
In the case of `O=C(O)c1ccc(C(=O)C(=Cc2ccc(N3CCN(Cc4ccccc4)CC3)c([N+](=O)[O-])c2)SCc2ccc(F)cc2)cc1` [Example 328], the IC50 in test [1] and in test [2] was 1 to 10 µM each time.
Consider `CN1CCN(CCNc2ccc(C=C(SCc3ccc(F)cc3)C(=O)c3ccc(F)cc3)cc2[N+](=O)[O-])CC1` [Example 329], for which the IC50 is ≤ 1 µM in test [1] and 1 to 10 µM in test [2].
The like results for `O=C(C(=Cc1ccc(N2CCN(CCO)CC2)c([N+](=O)[O-])c1)SCc1ccc(F)cc1)c1ccc(F)cc1` [Example 330] were, in that order, ≤ 1 µM and 1 to 10 µM.
For `O=C(C(=Cc1ccc(C(=O)N2CCN(CCO)CC2)cc1)SCc1ccc(F)cc1)c1ccc(F)c([N+](=O)[O-])c1` [Example 331], the IC50 in test [1] was ≤ 1 µM; in test [2], 1 to 10 µM.
The like results for `CC(=O)Nc1ccc(/C=C(/SCc2ccc(F)cc2)C(=O)c2ccc(C(=O)O)cc2)cc1[N+](=O)[O-]` [Example 332] were, in that order, 1 to 10 µM and 10 to 25 µM.
The like results for `Nc1ccc(/C=C(/SCc2ccc(F)cc2)C(=O)c2ccc(C(=O)O)cc2)cc1[N+](=O)[O-]` [Example 333] were, in that order, 10 to 25 µM and 10 to 25 µM.
The like results for `O=C(O)c1ccc(C(=O)/C(=C\c2ccc(Br)cc2)SCc2ccc(F)cc2)cc1` [Example 334] were, in that order, > 100 µM and > 100 µM.
As to `O=C(/C(=C\c1ccc(F)c([N+](=O)[O-])c1)SCc1ccc(F)cc1)c1ccc(SCc2ccc(F)cc2)c([N+](=O)[O-])c1` [Example 335], the IC50 lay in the range of 1 to 10 µM in test [1] and 10 to 25 µM in test [2].
The like results for `Cc1ccc(S(=O)(=O)Oc2ccc(C(=O)/C(=C\c3ccc(F)c([N+](=O)[O-])c3)SCc3ccc(F)cc3)cc2)cc1` [Example 336] were, in that order, 1 to 10 µM and 1 to 10 µM.
The like results for `CN1CCN(CCNC(=O)c2ccc(C(=O)/C(=C\c3ccc(F)c([N+](=O)[O-])c3)SCc3ccc(F)cc3)cc2)CC1` [Example 337] were, in that order, 10 to 25 µM and 10 to 25 µM.
The like results for `CCN(CC)CCOc1ccc(C(=O)/C(=C\c2ccc(F)c([N+](=O)[O-])c2)SCc2ccc(F)cc2)cc1` [Example 338] were, in that order, ≤ 1 µM and 1 to 10 µM.
With `CC1=CC(=O)C(C)=C(C(C)(C)CC(=O)Oc2ccc(C(=O)/C(=C\c3ccc(F)c([N+](=O)[O-])c3)SCc3ccc(F)cc3)cc2)C1=O` [Example 339], the IC50 in test [1] and in test [2] was 1 to 10 µM each time.
As to `O=C(/C(=C\c1ccc(F)c([N+](=O)[O-])c1)SCc1ccc(F)cc1)c1ccc(OCCCN2CCOCC2)cc1` [Example 340], the IC50 in test [1] and in test [2] was 1 to 10 µM in each case.
